System: 422866-222-R5-J1-PDC complex spheroid viability
Experiment: Anticancer human tumor 422866-222-R5-J1-PDC patient-derived pancreatic adenocarcinoma cell line growth inhibition [POLQ]
Details: for IC50: curve of first compound; for viability, T/C: stronger effect = lower value
Method in brief: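 Patient-derived tumour cells were co-cultured with HUVEC and mesenchymal stem cells as multicellular spheroids at 37 °C. They were treated with POLQ inhibitors (novobiocin, ART-558, RP6685) alone or combined with other agents. Top concentrations were at or near clinical Cmax (otherwise 10 microM; SN-38 at 1 microM), decreasing in half-log steps.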

[1] = second compound 0.0316 µM, first compound 0.0316 µM
[2] = second compound 0.0316 µM, first compound 0.1 µM
[3] = second compound 0.0316 µM, first compound 0.316 µM
[4] = second compound 0.0316 µM, first compound 1 µM
[5] = second compound 0.0316 µM, first compound 3.16 µM
[6] = second compound 0.0316 µM, first compound 10 µM
[7] = second compound 0.1 µM, first compound 0.0316 µM
[8] = second compound 0.1 µM, first compound 0.1 µM
[9] = second compound 0.1 µM, first compound 0.316 µM
[10] = second compound 0.1 µM, first compound 1 µM
[11] = second compound 0.1 µM, first compound 3.16 µM
[12] = second compound 0.1 µM, first compound 10 µM
[13] = second compound 0.316 µM, first compound 0.0316 µM
[14] = second compound 0.316 µM, first compound 0.1 µM
[15] = second compound 0.316 µM, first compound 0.316 µM
[16] = second compound 0.316 µM, first compound 1 µM
[17] = second compound 0.316 µM, first compound 3.16 µM
[18] = second compound 0.316 µM, first compound 10 µM
[19] = second compound 1 µM, first compound 0.0316 µM
[20] = second compound 1 µM, first compound 0.1 µM
[21] = second compound 1 µM, first compound 0.316 µM
[22] = second compound 1 µM, first compound 1 µM
[23] = second compound 1 µM, first compound 3.16 µM
[24] = second compound 1 µM, first compound 10 µM
[25] = second compound 3.16 µM, first compound 0.0316 µM
[26] = second compound 3.16 µM, first compound 0.1 µM
[27] = second compound 3.16 µM, first compound 0.316 µM
[28] = second compound 3.16 µM, first compound 1 µM
[29] = second compound 3.16 µM, first compound 3.16 µM
[30] = second compound 3.16 µM, first compound 10 µM
[31] = second compound 10 µM, first compound 0.0316 µM
[32] = second compound 10 µM, first compound 0.1 µM
[33] = second compound 10 µM, first compound 0.316 µM
[34] = second compound 10 µM, first compound 1 µM
[35] = second compound 10 µM, first compound 3.16 µM
[36] = second compound 10 µM, first compound 10 µM
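Note: spheroids exposed to compounds for one week before readout.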
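Throughout, for viability, T/C: percent of DMSO vehicle wells luminescence so 100% = untreated viability.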

COc1cccc2c1C(=O)c1c(O)c3c(c(O)c1C2=O)CC(O)(C(=O)CO)CC3OC1CC(N)C(O)C(C)O1 (stereo unspecified) + Cc1cccc(N(C)C(=O)C2C(O)CCN2c2nc(C)cc(C(F)(F)F)c2C#N)c1
IC50 (second compound 0.0316 µM): 160 nM
IC50 (second compound 0.1 µM): 114 nM
IC50 (second compound 0.316 µM): 152 nM
IC50 (second compound 1 µM): 202 nM
IC50 (second compound 3.16 µM): 204 nM
IC50 (second compound 10 µM): 133 nM
viability, T/C [1]: 67.2%
viability, T/C [2]: 56.3%
viability, T/C [3]: 41.4%
viability, T/C [4]: 24.5%
viability, T/C [5]: 32.9%
viability, T/C [6]: 30.1%
viability, T/C [7]: 66.6%
viability, T/C [8]: 51.3%
viability, T/C [9]: 37%
viability, T/C [10]: 22.6%
viability, T/C [11]: 27.4%
viability, T/C [12]: 34.4%
viability, T/C [13]: 57.6%
viability, T/C [14]: 56.7%
viability, T/C [15]: 37.3%
viability, T/C [16]: 25.6%
viability, T/C [17]: 26.2%
viability, T/C [18]: 36.4%
viability, T/C [19]: 65.5%
viability, T/C [20]: 60.8%
viability, T/C [21]: 42.4%
viability, T/C [22]: 24.5%
viability, T/C [23]: 28.6%
viability, T/C [24]: 36.6%
viability, T/C [25]: 62.3%
viability, T/C [26]: 58.5%
viability, T/C [27]: 44.3%
viability, T/C [28]: 30.1%
viability, T/C [29]: 30.2%
viability, T/C [30]: 36.2%
viability, T/C [31]: 68.2%
viability, T/C [32]: 53%
viability, T/C [33]: 40.5%
viability, T/C [34]: 25.9%
viability, T/C [35]: 24.1%
viability, T/C [36]: 40.2%

COc1cccc2c1C(=O)c1c(O)c3c(c(O)c1C2=O)CC(O)(C(=O)CO)CC3OC1CC(N)C(O)C(C)O1 (stereo unspecified) + COC1C(OC(N)=O)C(O)C(Oc2ccc3c(O)c(NC(=O)c4ccc(O)c(CC=C(C)C)c4)c(=O)oc3c2C)OC1(C)C
IC50 (second compound 0.0316 µM): 242 nM
IC50 (second compound 0.1 µM): 225 nM
IC50 (second compound 0.316 µM): 236 nM
IC50 (second compound 1 µM): 250 nM
IC50 (second compound 3.16 µM): 217 nM
IC50 (second compound 10 µM): 224 nM
viability, T/C [1]: 60.2%
viability, T/C [2]: 110%
viability, T/C [3]: 39.3%
viability, T/C [4]: 29.7%
viability, T/C [5]: 30%
viability, T/C [6]: 35.5%
viability, T/C [7]: 75.5%
viability, T/C [8]: 94.4%
viability, T/C [9]: 35.4%
viability, T/C [10]: 25.3%
viability, T/C [11]: 28.9%
viability, T/C [12]: 33.3%
viability, T/C [13]: 67.5%
viability, T/C [14]: 102%
viability, T/C [15]: 38.1%
viability, T/C [16]: 26.9%
viability, T/C [17]: 26.9%
viability, T/C [18]: 30.9%
viability, T/C [19]: 71.2%
viability, T/C [20]: 104%
viability, T/C [21]: 40.3%
viability, T/C [22]: 21.8%
viability, T/C [23]: 26.9%
viability, T/C [24]: 29.5%
viability, T/C [25]: 54.5%
viability, T/C [26]: 107%
viability, T/C [27]: 35%
viability, T/C [28]: 23.9%
viability, T/C [29]: 25.6%
viability, T/C [30]: 38.9%
viability, T/C [31]: 56.1%
viability, T/C [32]: 106%
viability, T/C [33]: 36.8%
viability, T/C [34]: 26.7%
viability, T/C [35]: 28.9%
viability, T/C [36]: 29.8%

C#Cc1c(F)ccc2cc(O)cc(-c3ncc4c(N5CC6CCC(C5)N6)nc(OCC56CCCN5CC(F)C6)nc4c3F)c12 (stereo unspecified) + COC1C(OC(N)=O)C(O)C(Oc2ccc3c(O)c(NC(=O)c4ccc(O)c(CC=C(C)C)c4)c(=O)oc3c2C)OC1(C)C
IC50 (second compound 0.0316 µM): 715 nM
IC50 (second compound 0.1 µM): 780 nM
IC50 (second compound 0.316 µM): 750 nM
IC50 (second compound 1 µM): 859 nM
IC50 (second compound 3.16 µM): 664 nM
IC50 (second compound 10 µM): 810 nM
viability, T/C [1]: 95.7%
viability, T/C [2]: 78.9%
viability, T/C [3]: 59.6%
viability, T/C [4]: 46.2%
viability, T/C [5]: 35.9%
viability, T/C [6]: 29.8%
viability, T/C [7]: 92.5%
viability, T/C [8]: 86.3%
viability, T/C [9]: 66.5%
viability, T/C [10]: 46.1%
viability, T/C [11]: 34.2%
viability, T/C [12]: 32.8%
viability, T/C [13]: 99.5%
viability, T/C [14]: 85.8%
viability, T/C [15]: 66.2%
viability, T/C [16]: 45.2%
viability, T/C [17]: 31.4%
viability, T/C [18]: 28.8%
viability, T/C [19]: 106%
viability, T/C [20]: 102%
viability, T/C [21]: 73.4%
viability, T/C [22]: 46.9%
viability, T/C [23]: 37%
viability, T/C [24]: 32%
viability, T/C [25]: 93.3%
viability, T/C [26]: 93.9%
viability, T/C [27]: 67.1%
viability, T/C [28]: 40.9%
viability, T/C [29]: 36.9%
viability, T/C [30]: 30.3%
viability, T/C [31]: 96.1%
viability, T/C [32]: 86.1%
viability, T/C [33]: 64.7%
viability, T/C [34]: 47.6%
viability, T/C [35]: 33.7%
viability, T/C [36]: 29.4%

From PubChem BioAssay AID1963844 (Molecular Pharmacology Branch, DTP, NCI, 2024)
